Values quoted from earlier work as cited in paper PMC8583936, “Machine Learning Assisted Approach for Finding Novel High Activity Agonists of Human Ectopic Olfactory Receptors” (International Journal of Molecular Sciences, 2021).
Like-named read-outs stand apart in the source and are kept apart here.

Columns and labels:
[1] = target: T1, OR1A1 (Homo sapiens, UniProt Q9P1Q5); details: cited from earlier work
T1 sequence (Q9P1Q5 1-309): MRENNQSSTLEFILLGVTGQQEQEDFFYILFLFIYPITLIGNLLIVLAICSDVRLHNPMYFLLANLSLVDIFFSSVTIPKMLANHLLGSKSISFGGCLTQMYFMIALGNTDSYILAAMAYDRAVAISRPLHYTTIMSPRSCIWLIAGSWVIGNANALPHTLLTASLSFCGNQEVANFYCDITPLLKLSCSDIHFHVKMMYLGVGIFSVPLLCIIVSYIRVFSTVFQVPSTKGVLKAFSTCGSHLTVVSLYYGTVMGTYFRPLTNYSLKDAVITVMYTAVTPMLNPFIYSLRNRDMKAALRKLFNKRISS

[2] = target: T2, OR2W1 (Homo sapiens, UniProt Q9Y3N9); details: cited from earlier work
T2 sequence (Q9Y3N9 1-320): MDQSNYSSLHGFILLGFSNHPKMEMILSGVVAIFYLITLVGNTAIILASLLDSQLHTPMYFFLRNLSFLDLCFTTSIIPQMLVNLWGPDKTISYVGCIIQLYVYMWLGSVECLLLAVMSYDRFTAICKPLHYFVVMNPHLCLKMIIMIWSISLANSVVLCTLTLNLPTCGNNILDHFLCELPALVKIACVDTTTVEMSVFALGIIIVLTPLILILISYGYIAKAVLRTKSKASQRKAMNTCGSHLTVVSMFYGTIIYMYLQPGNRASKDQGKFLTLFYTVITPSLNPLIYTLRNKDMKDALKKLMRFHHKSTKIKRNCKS

[3] = Table S1, ref Supplement references [1]-[9] as printed after each odorant name
[4] = Table S2, ref Supplement references [2]-[12] as printed after each odorant name

Compound | Class (agonist / non-agonist / conflicting info.) for OR1A1 [1, 3] | Class (agonist / non-agonist / antagonist / conflicting info.) for OR2W1 [2, 4] | Class (agonist / non-agonist / conflicting info.) for OR1A1 [1] | Class (agonist / non-agonist / antagonist / conflicting info.) for OR2W1 [2] | Class (agonist / non-agonist / conflicting info.) for OR1A1 ([1]; Table S1, ref Supplement references [1]-[9] as printed after each odorant name, listed as (R)-limonene)
CCCCCCCC(C)=O [2-nonanone] | Conflicting info. | Agonist | – | – | –
CCCCCCCCOC(=O)CCCCCCC [Octyl octanoate] | Conflicting info. | Antagonist | – | – | –
CCCCC[C@H](C)O [(+)-2-heptanol] | Non-agonist | Non-agonist | – | – | –
CCCCCCCC1CCC(=O)O1 (stereo not shown) [Gamma-undecalactone] | – | – | Non-agonist | Non-agonist | –
C[C@]12CCC(=O)C[C@@H]1CC[C@@H]1[C@@H]2CC[C@]2(C)C=CC[C@@H]12 [Androstenone] | – | – | Conflicting info. | Antagonist | –
CCCCC/C=C/C=C/C=O [E,E-2,4-decadienal] | Conflicting info. | Non-agonist | – | – | –
CCCCC(C)=O [2-hexanone] | – | – | Non-agonist | Agonist | –
C=C(C)[C@H]1CC=C(C)C(=O)C1 [(+)-Carvone] | Agonist | Agonist | – | – | –
CCOC(=O)C(C)=O [Ethyl pyruvate] | Non-agonist | Non-agonist | – | – | –
CC(C)=C1CC[C@@H](C)CC1=O [(+)-Pulegone] | – | – | Non-agonist | Non-agonist | –
CC1=NC(C)SC1C (stereo not shown) [2,4,5-trimethyl-2,5-dihydro-1,3-thiazole] | Non-agonist | Antagonist | – | – | –
C=CC(=O)CCCCC [1-octen-3-one] | Conflicting info. | Non-agonist | – | – | –
CCCCC(=O)O [Valeric acid] | Non-agonist | Non-agonist | – | – | –
CCCCOC(=O)c1ccccc1N [Butyl anthranilate] | – | – | Agonist | Agonist | –
COc1ccccc1O [Guaiacol] | Non-agonist | Non-agonist | – | – | –
CCCCC(=O)OCC [Ethyl pentanoate] | – | – | Non-agonist | Non-agonist | –
C=CCc1ccc(OC(C)=O)c(OC)c1 [Eugenyl acetate] | Non-agonist | Agonist | – | – | –
CCCCCCCCC(=O)O [Nonanoic acid] | – | – | Conflicting info. | Agonist | –
CC(C)CCO [3-Methyl-1-butanol] | Non-agonist | Non-agonist | – | – | –
(+)-beta-Pinene | Non-agonist | Non-agonist | – | – | –
CCCC/C=C\C=C\C=O [2,4-nonadienal, (2e,4z)-] | Non-agonist | Non-agonist | – | – | –
CC12CCC(CC1)C(C)(C)O2 [1,8-cineole] | Non-agonist | Non-agonist | – | – | –
C=C(C)C1CC=C(C)C(=O)C1 (single isomer, unassigned; (-)) [(-)-Carvone] | Agonist | Agonist | – | – | –
CCCCCCCCCC=O [Decanal] | Conflicting info. | Non-agonist | – | – | –
CCCC(=O)C(C)=O [2,3-hexanedione] | Non-agonist | Agonist | – | – | –
CC=O [Acetaldehyde] | – | – | Non-agonist | Non-agonist | –
O=C1CCOc2ccccc21 [4-chromanone] | Agonist | Agonist | – | – | –

Compound | Class (agonist / non-agonist / conflicting info.) for OR1A1 [1, 3] | Class (agonist / non-agonist / antagonist / conflicting info.) for OR2W1 [2, 4] | Class (agonist / non-agonist / conflicting info.) for OR1A1 [1] | Class (agonist / non-agonist / antagonist / conflicting info.) for OR2W1 [2] | Class (agonist / non-agonist / conflicting info.) for OR1A1 ([1]; Table S1, ref Supplement references [1]-[9] as printed after each odorant name, listed as (R)-limonene)
C=CC(O)CCCCC (racemic) [(R/S)-octen-3-ol] | Agonist | Agonist | – | – | –
COC(=O)c1ccccc1O [Methyl salicylate] | Conflicting info. | Agonist | – | – | –
CCCOC(=O)CCC [Propyl butyrate] | – | – | Non-agonist | Non-agonist | –
C=C(C)[C@H]1CC=C(C)CC1 [R-limonene] | Agonist | Agonist | – | – | agonists
CCOc1cc(C=O)ccc1O [Ethyl vanillin] | Conflicting info. | Conflicting info. | – | – | –
CSSc1ccoc1C [Methyl 2-methyl-3-furyl disulfide] | Non-agonist | Non-agonist | – | – | –
C=CCc1ccc(O)c(OC)c1 [Eugenol] | – | – | Conflicting info. | Conflicting info. | –
CCC(=O)OC(C)(C)C [Tert-Butyl propionate] | Non-agonist | Non-agonist | – | – | –
O=C/C=C/c1ccccc1 [Cinnamaldehyde] | Agonist | Non-agonist | – | – | –
CC(C)CC(=O)O [Isovaleric acid] | Non-agonist | Antagonist | – | – | –
CC1=CC[C@H](C(C)C)C=C1 [Alpha-phellandrene] | Non-agonist | Non-agonist | – | – | –
CC1=C(O)C(=O)C(C)O1 (stereo not shown) [Furaneol] | Non-agonist | Non-agonist | – | – | –
CCCC(S)CCO (stereo not shown) [3-Sulfanylhexan-1-ol] | Non-agonist | Non-agonist | – | – | –
CCCC(=O)C(C)CC (stereo not shown) [3-Methylheptan-4-one] | Non-agonist | Non-agonist | – | – | –
(+)-Fenchone | Non-agonist | Non-agonist | – | – | –
Cc1ccccc1O [2-methylphenol] | – | – | Non-agonist | Non-agonist | –
CC/C=C\CCOC(C)=O [3-Hexenyl acetate, (3Z)-] | Non-agonist | Non-agonist | – | – | –
CC/C=C\CCO [Cis-3-hexen-1-ol] | Conflicting info. | Conflicting info. | – | – | –
CC(=O)c1ccco1 [2-Furyl methyl ketone] | Non-agonist | Non-agonist | – | – | –
C=CC(=C)CCC=C(C)C [Myrcene] | Non-agonist | Non-agonist | – | – | –
CCC1CCC(=O)O1 (stereo not shown) [Γ-caprolactone] | – | – | Non-agonist | Non-agonist | –
C/C=C/C(=O)C(C)CC (stereo not shown) [Filbertone] | Non-agonist | Non-agonist | – | – | –
C/C=C/C(=O)C1=C(C)CCCC1(C)C [Beta-damascone] | Conflicting info. | Non-agonist | – | – | –
CSCCC=O [Methional] | Non-agonist | Non-agonist | – | – | –
CCCCCC(=O)CC(C)=O [2,4-nonanedione] | – | Agonist | – | – | –
CCCCCCS [Hexane-1-thiol] | – | – | – | Agonist | –
CCCCCCCCCC(=O)O [Decanoic acid] | – | Agonist | – | – | –
